Test results taken from ChEMBL document CHEMBL5465560, “Selectivity Literature for EUbOPEN Chemogenomic Library” (2024).
Blank lines part the entries; values can stand above or below the molecule they belong to.

Tests used:
[1] = target: Citron Rho-interacting kinase (Homo sapiens) (UniProt O14578); settings: at 10 µM
[2] = system: Tyrosine-protein kinase ABL1 (Homo sapiens), P00519 [F317I]; assay: Selectivity interaction (Ambit KINOMEscan and KiNATiv profiling in Jurkat cells) EUB0000090b ABL1; assay type: cell-based; settings: at 1 µM
[3] = target: T1, Calcium/calmodulin-dependent protein kinase type IV (Homo sapiens) (UniProt Q16566); assay: Selectivity interaction (Kinase panel (DSF assay)) EUB0001559a CAMK4
T1 sequence (whole entry): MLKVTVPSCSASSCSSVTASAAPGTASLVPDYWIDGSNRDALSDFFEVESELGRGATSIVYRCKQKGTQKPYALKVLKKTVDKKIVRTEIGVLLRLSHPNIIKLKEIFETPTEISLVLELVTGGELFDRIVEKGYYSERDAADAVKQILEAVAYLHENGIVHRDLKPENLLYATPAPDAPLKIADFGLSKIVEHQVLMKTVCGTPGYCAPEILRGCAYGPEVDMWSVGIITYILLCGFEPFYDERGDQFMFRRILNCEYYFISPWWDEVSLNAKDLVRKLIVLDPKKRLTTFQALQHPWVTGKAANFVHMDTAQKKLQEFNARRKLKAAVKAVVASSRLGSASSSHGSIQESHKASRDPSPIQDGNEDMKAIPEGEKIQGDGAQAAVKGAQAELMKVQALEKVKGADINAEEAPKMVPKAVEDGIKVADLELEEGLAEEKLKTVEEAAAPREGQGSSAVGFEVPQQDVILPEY

[4] = target: MAP kinase-interacting serine/threonine-protein kinase 2 (Homo sapiens, UniProt Q9HBH9); assay: Selectivity interaction (Kinase panel (literature)) EUB0001199aCl MKNK2; settings: at 1 µM
[5] = target: T2, Aurora kinase A (Homo sapiens) (UniProt O14965); assay: Selectivity interaction (KinomeScan (DiscoverX)) EUB0001079a STK6; settings: at 1 µM
T2 sequence (whole entry): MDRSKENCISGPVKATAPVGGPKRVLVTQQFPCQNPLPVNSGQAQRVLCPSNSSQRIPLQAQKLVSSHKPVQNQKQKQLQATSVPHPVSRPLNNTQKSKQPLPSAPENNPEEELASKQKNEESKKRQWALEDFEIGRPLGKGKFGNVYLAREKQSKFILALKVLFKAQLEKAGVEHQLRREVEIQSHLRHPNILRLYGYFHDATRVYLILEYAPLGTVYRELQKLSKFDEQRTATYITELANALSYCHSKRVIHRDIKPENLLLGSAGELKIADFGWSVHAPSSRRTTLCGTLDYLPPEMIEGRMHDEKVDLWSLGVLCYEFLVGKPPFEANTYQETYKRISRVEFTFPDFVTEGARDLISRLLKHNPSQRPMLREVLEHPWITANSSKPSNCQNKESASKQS

[6] = target: T3, Interleukin-1 receptor-associated kinase 4 (Homo sapiens) (UniProt Q9NWZ3); assay: Selectivity interaction (KinomeScan (DiscoverX)) EUB0000618a IRAK4; settings: at 10 µM
T3 sequence (whole entry): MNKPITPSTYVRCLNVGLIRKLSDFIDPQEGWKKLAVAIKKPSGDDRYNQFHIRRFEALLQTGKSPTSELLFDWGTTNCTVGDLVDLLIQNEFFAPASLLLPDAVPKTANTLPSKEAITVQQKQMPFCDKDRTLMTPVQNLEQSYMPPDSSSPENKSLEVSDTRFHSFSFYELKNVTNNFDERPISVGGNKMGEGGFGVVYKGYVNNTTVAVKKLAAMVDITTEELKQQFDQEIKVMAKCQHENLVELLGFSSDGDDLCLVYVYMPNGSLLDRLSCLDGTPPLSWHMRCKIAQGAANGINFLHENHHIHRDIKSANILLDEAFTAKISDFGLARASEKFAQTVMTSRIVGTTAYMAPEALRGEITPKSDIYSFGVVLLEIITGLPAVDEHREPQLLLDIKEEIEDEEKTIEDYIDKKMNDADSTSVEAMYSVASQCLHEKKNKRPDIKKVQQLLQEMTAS

[7] = target: Tyrosine-protein kinase receptor UFO (Homo sapiens) (UniProt P30530); assay: Selectivity interaction (KinomeScan (DiscoverX)) EUB0000045b AXL
[8] = target: Platelet-derived growth factor receptor beta (Homo sapiens, UniProt P09619); assay: Selectivity interaction (KinomeScan (DiscoverX)) EUB0000045b PDGFRB
[9] = target: Putative phosphatidylinositol 4-kinase alpha-like protein P2 (Homo sapiens) (UniProt A4QPH2); assay: Selectivity interaction (ActivX KiNativ screen (kinase selectivity in THP-1 cell lysates)) EUB0000639a PI4KAP2; assay type: subcellular; settings: lysate
[10] = target: Proto-oncogene tyrosine-protein kinase ROS (Homo sapiens) (UniProt P08922); assay: Selectivity interaction (KinomeScan (DiscoverX)) EUB0000229b ROS1; settings: at 10 µM
[11] = target: Homeodomain-interacting protein kinase 1 (Homo sapiens, UniProt Q86Z02); assay: Selectivity interaction (ProQinase) EUB0000171b HIPK1
[12] = target: Serine/threonine-protein kinase WNK1 (Homo sapiens) (UniProt Q9H4A3); assay: Selectivity interaction (ProQinase) EUB0000171b WNK1
[13] = target: Glycogen synthase kinase-3 alpha (Homo sapiens, UniProt P49840); assay: Selectivity interaction (Kinase counterscreening (biochemical assay)) EUB0000604a GSK3A
[14] = target: Cyclin-dependent kinase 14 (Homo sapiens) (UniProt O94921); assay: Selectivity interaction (KinomeScan (DiscoverX)) EUB0000695a CDK14; settings: at 100 nM
[15] = target: T4, Serine/threonine-protein kinase RIO3 (Homo sapiens) (UniProt O14730); assay: Selectivity interaction (KinomeScan (DiscoverX)) EUB0000695a RIOK3; settings: at 100 nM
T4 sequence (whole entry): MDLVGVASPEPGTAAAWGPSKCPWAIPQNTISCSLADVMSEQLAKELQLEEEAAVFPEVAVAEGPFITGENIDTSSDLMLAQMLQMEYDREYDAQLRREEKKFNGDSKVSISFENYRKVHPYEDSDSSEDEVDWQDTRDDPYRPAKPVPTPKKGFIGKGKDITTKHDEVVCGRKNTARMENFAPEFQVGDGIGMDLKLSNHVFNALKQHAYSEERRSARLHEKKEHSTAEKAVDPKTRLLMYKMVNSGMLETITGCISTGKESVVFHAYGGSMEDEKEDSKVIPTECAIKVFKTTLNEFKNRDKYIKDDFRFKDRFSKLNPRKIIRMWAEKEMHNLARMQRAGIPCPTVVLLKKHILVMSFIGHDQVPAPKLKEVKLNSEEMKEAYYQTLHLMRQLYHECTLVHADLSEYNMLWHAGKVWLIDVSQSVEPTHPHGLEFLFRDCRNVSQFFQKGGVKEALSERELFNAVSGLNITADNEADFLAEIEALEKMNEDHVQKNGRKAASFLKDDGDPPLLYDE

Putative phosphatidylinositol 4-kinase alpha-like protein P2 (Homo sapiens), sequence (A4QPH2 whole entry): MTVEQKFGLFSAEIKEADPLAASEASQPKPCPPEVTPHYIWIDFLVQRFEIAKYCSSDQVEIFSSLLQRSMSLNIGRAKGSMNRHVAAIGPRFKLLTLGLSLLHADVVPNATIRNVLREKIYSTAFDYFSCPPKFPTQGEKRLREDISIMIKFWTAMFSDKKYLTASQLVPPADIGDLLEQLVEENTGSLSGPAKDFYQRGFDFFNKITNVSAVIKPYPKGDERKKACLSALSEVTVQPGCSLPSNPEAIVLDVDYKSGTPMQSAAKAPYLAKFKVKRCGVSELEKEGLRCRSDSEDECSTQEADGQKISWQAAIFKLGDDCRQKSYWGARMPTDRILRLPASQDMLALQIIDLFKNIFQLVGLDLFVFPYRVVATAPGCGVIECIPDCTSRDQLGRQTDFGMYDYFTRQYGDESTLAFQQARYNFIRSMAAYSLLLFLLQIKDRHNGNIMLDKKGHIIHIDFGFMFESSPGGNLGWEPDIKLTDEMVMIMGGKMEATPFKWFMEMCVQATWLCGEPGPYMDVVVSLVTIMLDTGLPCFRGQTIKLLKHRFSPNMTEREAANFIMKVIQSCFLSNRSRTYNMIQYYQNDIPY
Platelet-derived growth factor receptor beta, sequence (P09619 whole entry): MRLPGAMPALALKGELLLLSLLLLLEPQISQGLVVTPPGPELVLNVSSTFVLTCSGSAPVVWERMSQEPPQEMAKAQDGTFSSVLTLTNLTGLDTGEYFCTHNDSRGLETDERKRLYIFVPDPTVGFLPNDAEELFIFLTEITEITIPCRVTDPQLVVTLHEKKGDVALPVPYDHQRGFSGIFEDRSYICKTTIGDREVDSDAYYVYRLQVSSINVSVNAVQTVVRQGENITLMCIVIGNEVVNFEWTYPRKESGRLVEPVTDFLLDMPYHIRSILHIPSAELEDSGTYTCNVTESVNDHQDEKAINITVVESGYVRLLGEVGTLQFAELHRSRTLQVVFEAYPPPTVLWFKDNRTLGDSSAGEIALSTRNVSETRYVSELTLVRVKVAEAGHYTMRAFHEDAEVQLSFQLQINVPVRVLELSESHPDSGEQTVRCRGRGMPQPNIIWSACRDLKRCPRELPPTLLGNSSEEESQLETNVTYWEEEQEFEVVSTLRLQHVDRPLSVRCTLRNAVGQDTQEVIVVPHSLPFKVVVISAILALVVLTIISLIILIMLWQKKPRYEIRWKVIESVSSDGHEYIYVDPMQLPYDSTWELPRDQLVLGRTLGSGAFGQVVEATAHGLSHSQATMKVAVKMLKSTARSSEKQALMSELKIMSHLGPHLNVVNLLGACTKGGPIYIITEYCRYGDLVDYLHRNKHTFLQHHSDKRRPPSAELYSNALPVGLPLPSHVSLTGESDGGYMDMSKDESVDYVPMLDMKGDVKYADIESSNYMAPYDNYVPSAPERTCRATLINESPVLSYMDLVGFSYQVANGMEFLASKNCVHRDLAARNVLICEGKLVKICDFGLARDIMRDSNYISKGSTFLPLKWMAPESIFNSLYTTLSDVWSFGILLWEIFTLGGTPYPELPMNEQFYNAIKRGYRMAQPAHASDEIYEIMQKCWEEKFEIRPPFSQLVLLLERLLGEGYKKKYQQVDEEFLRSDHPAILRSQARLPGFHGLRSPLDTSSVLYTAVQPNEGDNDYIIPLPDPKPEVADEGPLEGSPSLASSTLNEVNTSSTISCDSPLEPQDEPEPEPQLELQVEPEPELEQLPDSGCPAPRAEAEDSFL
Tyrosine-protein kinase receptor UFO (Homo sapiens), sequence (P30530 whole entry): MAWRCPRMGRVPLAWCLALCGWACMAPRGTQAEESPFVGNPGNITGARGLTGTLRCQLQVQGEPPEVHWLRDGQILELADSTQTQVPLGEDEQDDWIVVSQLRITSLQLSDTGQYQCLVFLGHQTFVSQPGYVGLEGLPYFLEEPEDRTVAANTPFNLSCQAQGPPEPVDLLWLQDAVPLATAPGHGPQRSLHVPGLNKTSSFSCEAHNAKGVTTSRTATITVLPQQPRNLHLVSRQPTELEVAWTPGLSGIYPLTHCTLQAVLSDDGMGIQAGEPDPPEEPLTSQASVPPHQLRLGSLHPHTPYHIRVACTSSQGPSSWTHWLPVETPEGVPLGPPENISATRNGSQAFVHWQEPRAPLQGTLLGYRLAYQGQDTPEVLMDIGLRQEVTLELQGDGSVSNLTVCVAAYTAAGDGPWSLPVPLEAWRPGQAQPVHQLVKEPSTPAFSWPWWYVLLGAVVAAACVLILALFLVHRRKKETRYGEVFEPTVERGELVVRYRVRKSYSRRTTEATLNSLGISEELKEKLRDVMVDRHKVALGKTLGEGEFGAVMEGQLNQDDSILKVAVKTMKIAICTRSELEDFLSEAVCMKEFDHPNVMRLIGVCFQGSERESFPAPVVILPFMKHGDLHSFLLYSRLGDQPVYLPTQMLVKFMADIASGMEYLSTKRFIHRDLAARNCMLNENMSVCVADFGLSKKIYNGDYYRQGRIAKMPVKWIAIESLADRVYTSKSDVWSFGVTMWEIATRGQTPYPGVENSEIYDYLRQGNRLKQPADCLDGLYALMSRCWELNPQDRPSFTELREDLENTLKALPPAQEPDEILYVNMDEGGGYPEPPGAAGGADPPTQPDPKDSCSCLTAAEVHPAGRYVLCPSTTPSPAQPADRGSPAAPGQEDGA
Homeodomain-interacting protein kinase 1, sequence (Q86Z02 whole entry, looked up): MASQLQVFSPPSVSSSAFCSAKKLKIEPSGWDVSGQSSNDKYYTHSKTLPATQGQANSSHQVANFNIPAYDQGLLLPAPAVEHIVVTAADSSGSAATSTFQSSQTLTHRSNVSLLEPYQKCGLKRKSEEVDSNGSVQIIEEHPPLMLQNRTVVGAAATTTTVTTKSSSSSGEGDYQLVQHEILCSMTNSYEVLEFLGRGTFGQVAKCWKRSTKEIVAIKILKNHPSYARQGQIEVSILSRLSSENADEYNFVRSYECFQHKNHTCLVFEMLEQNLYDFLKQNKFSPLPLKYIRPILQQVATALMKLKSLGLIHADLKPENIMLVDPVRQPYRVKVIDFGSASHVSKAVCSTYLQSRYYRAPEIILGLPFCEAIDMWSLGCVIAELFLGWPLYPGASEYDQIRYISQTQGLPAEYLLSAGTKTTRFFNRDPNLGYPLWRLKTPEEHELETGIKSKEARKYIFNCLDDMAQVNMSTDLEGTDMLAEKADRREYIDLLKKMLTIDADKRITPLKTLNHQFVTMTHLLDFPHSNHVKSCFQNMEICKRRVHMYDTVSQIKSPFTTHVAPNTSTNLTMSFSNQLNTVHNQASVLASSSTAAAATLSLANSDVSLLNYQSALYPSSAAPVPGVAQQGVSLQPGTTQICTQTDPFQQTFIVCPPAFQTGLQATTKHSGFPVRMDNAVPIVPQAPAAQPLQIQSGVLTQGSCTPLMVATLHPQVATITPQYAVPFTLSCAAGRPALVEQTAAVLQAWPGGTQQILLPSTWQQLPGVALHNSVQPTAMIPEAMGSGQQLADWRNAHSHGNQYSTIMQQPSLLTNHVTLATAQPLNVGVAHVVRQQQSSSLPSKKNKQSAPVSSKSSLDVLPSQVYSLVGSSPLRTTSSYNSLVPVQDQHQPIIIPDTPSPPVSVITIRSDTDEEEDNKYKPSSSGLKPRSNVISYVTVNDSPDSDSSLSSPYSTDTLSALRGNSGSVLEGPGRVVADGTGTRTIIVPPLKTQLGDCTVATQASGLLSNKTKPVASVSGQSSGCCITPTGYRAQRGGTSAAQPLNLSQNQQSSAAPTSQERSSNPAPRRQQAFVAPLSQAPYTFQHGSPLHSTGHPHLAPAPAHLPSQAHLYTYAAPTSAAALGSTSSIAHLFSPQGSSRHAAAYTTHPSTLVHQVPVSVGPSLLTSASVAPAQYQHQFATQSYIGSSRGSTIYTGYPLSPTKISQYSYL
Glycogen synthase kinase-3 alpha, sequence (P49840 whole entry): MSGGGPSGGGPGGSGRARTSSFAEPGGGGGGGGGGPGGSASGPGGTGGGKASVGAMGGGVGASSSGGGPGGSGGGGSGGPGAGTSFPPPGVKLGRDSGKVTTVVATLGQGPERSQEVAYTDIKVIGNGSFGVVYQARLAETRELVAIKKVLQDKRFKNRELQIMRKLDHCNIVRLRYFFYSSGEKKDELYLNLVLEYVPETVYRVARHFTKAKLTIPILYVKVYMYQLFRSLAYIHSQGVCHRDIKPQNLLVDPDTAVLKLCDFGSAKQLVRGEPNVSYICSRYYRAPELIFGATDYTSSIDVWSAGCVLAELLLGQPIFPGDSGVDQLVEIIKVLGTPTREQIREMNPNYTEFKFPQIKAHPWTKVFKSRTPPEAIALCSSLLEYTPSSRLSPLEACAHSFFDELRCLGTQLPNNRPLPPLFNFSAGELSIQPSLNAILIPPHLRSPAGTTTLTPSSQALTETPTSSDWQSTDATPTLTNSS
Cyclin-dependent kinase 14 (Homo sapiens), sequence (O94921 whole entry): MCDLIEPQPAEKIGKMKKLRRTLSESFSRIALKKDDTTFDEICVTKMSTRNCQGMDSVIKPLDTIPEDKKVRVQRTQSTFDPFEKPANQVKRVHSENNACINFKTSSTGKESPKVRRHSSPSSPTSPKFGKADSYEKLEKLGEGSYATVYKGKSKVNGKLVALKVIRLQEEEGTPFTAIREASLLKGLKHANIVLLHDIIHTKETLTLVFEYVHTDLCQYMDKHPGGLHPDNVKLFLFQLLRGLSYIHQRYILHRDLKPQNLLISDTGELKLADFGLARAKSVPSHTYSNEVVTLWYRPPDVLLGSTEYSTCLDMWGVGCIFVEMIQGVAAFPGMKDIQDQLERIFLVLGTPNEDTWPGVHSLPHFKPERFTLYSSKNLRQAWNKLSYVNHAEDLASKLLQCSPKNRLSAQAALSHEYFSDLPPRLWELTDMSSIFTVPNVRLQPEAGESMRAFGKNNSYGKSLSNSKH

- % of control [1]: 100%
SMILES: CCN(CC)CCCCNc1ncc2cc(-c3cc(OC)cc(OC)c3)c(NC(=O)NC(C)(C)C)nc2n1

SMILES: CN(C)C/C=C/C(=O)Nc1ccc(C(=O)N2CCCC(Nc3ncc(Cl)c(-c4c[nH]c5ccccc45)n3)C2)cc1 (stereo not drawn)
- % of control [2]: 100%

- dTM [3]: -0.4 K
SMILES: CN(C(=O)c1cnn2cccnc12)c1cc2c(cc1N1CCOCC1)C(=O)N(C[C@@H](F)C(C)(C)O)C2

- % of inhibition [4]: 9%
SMILES: CN1Cc2nccc(-c3cn(C)nc3-c3ccc(F)cc3)c2C1=O

SMILES: Nc1cnc(N2CCc3cc(S(=O)(=O)Nc4c(F)cc(Cl)cc4F)cc(N4CCCC4=O)c32)nc1 [TP-020n]
- % of control [5]: 100%

SMILES: O[C@H]1CC[C@H](Nc2ncc3nc(Nc4c(F)cc(F)cc4F)n([C@H]4CCOC4)c3n2)CC1
- % of control [6]: 94%

SMILES: C=CC(=O)Nc1cc(-n2c(=O)ccc3cnc4ccc(-c5ccc(NS(C)(=O)=O)cc5)cc4c32)ccc1C
- % of control ([7]; at 1 µM): 100%
- % of control ([7]; at 10 µM): 100%
- % of control ([8]; at 1 µM): 76%
- % of control ([8]; at 10 µM): 63%

- % of inhibition ([9]; at 0.01 µM): 7.2%
- % of inhibition ([9]; at 0.04 µM): -7.1%
- % of inhibition ([9]; at 0.2 µM): -24.4%
- % of inhibition ([9]; at 1 µM): -6%
- % of inhibition ([9]; at 5 µM): 38.5%
SMILES: CC[C@@H]1[C@H](F)C(=O)N[C@@H]1COc1nccc2cc(C(N)=O)c(OC)cc12 [ZIMLOVISERTIB]

SMILES: COc1cc(N(C)c2ccnc3ccc(C(F)(F)F)cc23)cc(OC)c1OC
- % binding [10]: 86%

- % of control ([11]; at 1 µM): 103%
- % of control ([11]; at 5 µM): 143%
- % of control ([12]; at 1 µM): 95%
- % of control ([12]; at 5 µM): 81%
SMILES: C=CC(=O)Nc1cccc(C(=O)Nc2ccc(Nc3cc(-c4[nH]c(SC)nc4C)ccn3)cc2)c1

SMILES: Cc1cnc(Nc2ccc(F)cc2Cl)nc1-c1c[nH]c(C(=O)N[C@H](CO)c2cccc(Cl)c2)c1
- Ki [13]: 400 nM

SMILES: Cc1cc(F)c(C(=O)Nc2cccc(-c3nncn3C(C)C)n2)cc1-n1cnc(C2CC2)c1
- % of control [14]: 49%
- % of control [15]: 83%
